Experiments:
CDK2/CycE = biological target: T1, CDK2/CycE (Homo sapiens, UniProt P24941); assay: CDK2/CycE kinase assay (Method 2, TR-FRET); format: biochemical; conditions: Method 2, 10 μM ATP
T1 construct: GST; purchased ProQinase GmbH (Freiburg, Germany); host or cells: insect cells (Sf9)
Description: 2. CDK2/CycE Kinase Assay:
CDK2/CycE-inhibitory activity of compounds of the present invention was quantified employing the CDK2/CycE TR-FRET assay as described in the following paragraphs:
Recombinant fusion proteins of GST and human CDK2 and of GST and human CycE, expressed in insect cells (Sf9) and purified by Glutathion-Sepharose affinity chromatography, were purchased from ProQinase GmbH (Freiburg, Germany). As substrate for the kinase reaction biotinylated peptide biotin-Ttds-YISPLKSPYKISEG (C-terminus in amid form) was used which can be purchased e.g. form the company JERINI Peptide Technologies (Berlin, Germany).
For the assay 50 nl of a 100 fold concentrated solution of the test compound in DMSO was pipetted into a black low volume 384 well microtiter plate (Greiner Bio-One, Frickenhausen, Germany), 2 μl of a solution of CDK2/CycE in aqueous assay buffer [50 mM Tris/HCl pH 8.0, 10 mM MgCl2, 1.0 mM dithiothreitol, 0.1 mM sodium ortho-vanadate, 0.01% (v/v) Nonidet-P40 (Sigma)] were added and the mixture was incubated for 15 min at 22° C. to allow pre-binding of the test compounds to the enzyme before the start of the kinase reaction. Then the kinase reaction was started by the addition of 3 μl of a solution of adenosine-tri-phosphate (ATP, 16.7 μM=>final conc. in the 5 μl assay volume is 10 μM) and substrate (1.25 μM=>final conc. in the 5 μl assay volume is 0.75 μM) in assay buffer and the resulting mixture was incubated for a reaction time of 25 min at 22° C. The concentration of CDK2/CycE was adjusted depending of the activity of the enzyme lot and was chosen appropriate to have the assay in the linear range, typical concentrations were in the range of 130 ng/mL. The reaction was stopped by the addition of 5 μl of a solution of TR-FRET detection reagents (0.2 μM streptavidine-XL665 [Cisbio Bioassays, Codolet, France] and 1 nM anti-RB(pSer807/pSer811)-antibody from BD Pharmingen [#558389] and 1.2 nM LANCE EU-W1024 labeled anti-mouse IgG antibody [Perkin-Elmer, product no. AD0077]) in an aqueous EDTA-solution (100 mM EDTA, 0.2% (w/v) bovine serum albumin in 100 mM HEPES/NaOH pH 7.0).
The resulting mixture was incubated 1 h at 22° C. to allow the formation of complex between the phosphorylated biotinylated peptide and the detection reagents. Subsequently the amount of phosphorylated substrate was evaluated by measurement of the resonance energy transfer from the Eu-chelate to the streptavidine-XL. Therefore, the fluorescence emissions at 620 nm and 665 nm after excitation at 350 nm was measured in a TR-FRET reader, e.g. a Rubystar (BMG Labtechnologies, Offenburg, Germany) or a Viewlux (Perkin-Elmer). The ratio of the emissions at 665 nm and at […] was taken as the measure for the amount of phosphorylated substrate. The data were normalised (enzyme reaction without inhibitor=0% inhibition, all other assay components but no enzyme=100% inhibition).

[1] = test system: HeLa, human cervical tumour cells; assay: Proliferation assay, HeLa (crystal violet); format: cell-based; conditions: 96 h, 4 days, read-out: Inhibition of HeLa cell proliferation
Method: (§1) Cultivated tumour cells (HeLa, human cervical tumour cells, ATCC CCL-2; NCI-H460, human non-small cell lung carcinoma cells, ATCC HTB-177; A2780, human ovarian carcinoma cells, ECACC #93112519; DU 145, hormone-independent human prostate carcinoma cells, ATCC HTB-81; HeLa-MaTu-ADR, multidrug-resistant human cervical carcinoma cells, EPO-GmbH Berlin; Caco-2, human colorectal carcinoma cells, ATCC HTB-37; B16F10, mouse melanoma cells, ATCC CRL-6475) were plated at a density of 5,000 cells/well (DU145, HeLa-MaTu-ADR), 3,000 cells/well (NCI-H460, HeLa), 2,500 cells/well (A2780), 1,500 cells/well (Caco-2), or 1,000 cells/well (B16F10) in a 96-well multititer plate in 200 μL of their respective growth medium supplemented 10% fetal calf serum. After 24 hours, the cells of one plate (zero-point plate) were stained with crystal violet (see below), while the medium of the other plates was replaced by fresh culture medium (200 μl), to which the test substances were added in various concentrations (0 μM, as well as in the range of 0.001-10 μM; the final concentration of the solvent dimethyl sulfoxide was 0.5%). The cells were incubated for 4 days in the presence of test substances. Cell proliferation was determined by staining the cells with crystal violet: the cells were fixed by adding 20 μl/measuring point of an 11% glutaric aldehyde solution for 15 minutes at room temperature. After three washing cycles of the fixed cells with water, the plates were dried at room temperature. The cells were stained by adding 100 μl/measuring point of a 0.1% crystal violet solution (pH 3.0). After three washing cycles of the stained cells with water, the plates were dried at room temperature. The dye was dissolved by adding 100 μl/measuring point of a 10% acetic acid solution. The extinction was determined by photometry at a wavelength of 595 nm. The change of cell number, in percent, was calculated by normalization of the measured values to the extinction values of the zero-point plate (=0%) and the extinction of the untreated (0 μm) cells (=100%). The IC50 values (inhibitory concentration at 50% of maximal effect) were determined by means of a 4 parameter fit.

[2] = test system: HeLa-MaTu-ADR, multidrug-resistant human cervical carcinoma cells; assay: Proliferation assay, HeLa-MaTu-ADR (crystal violet); format: cell-based; conditions: 96 h, 4 days, read-out: Inhibition of HeLa-MaTu-ADR cell proliferation
Method: as §1

[3] = test system: NCI-H460, human non-small cell lung carcinoma cells; assay: Proliferation assay, NCI-H460 (crystal violet); format: cell-based; conditions: 96 h, NCI-H460, 4 days, read-out: Inhibition of NCI-H460 cell proliferation
Method: as §1

[4] = test system: DU 145, hormone-independent human prostate carcinoma cells; assay: Proliferation assay, DU145 (crystal violet); format: cell-based; conditions: DU-145, 96 h, DU145, 4 days, read-out: Inhibition of DU145 cell proliferation
Method: as §1

[5] = test system: Caco-2, human colorectal carcinoma cells; assay: Proliferation assay, Caco-2 (crystal violet); format: cell-based; conditions: 96 h, Caco-2, 4 days, read-out: Inhibition of Caco-2 cell proliferation
Method: as §1

[6] = test system: B16F10, mouse melanoma cells; assay: Proliferation assay, B16F10 (crystal violet); format: cell-based; conditions: B16-F10, 96 h, B16F10, 4 days, read-out: Inhibition of B16F10 cell proliferation
Method: as §1

[7] = test system: A2780, human ovarian carcinoma cells; assay: Proliferation assay, A2780 (crystal violet); format: cell-based; conditions: 96 h, A2780, 4 days, read-out: Inhibition of A2780 cell proliferation
Method: as §1, with “The IC50 values (inhibitory concentration at 50% of maximal effect) were determined by means of a 4 parameter fit.” left out

IC50 (CDK2/CycE): 130 nM | IC50 [1]: 31 nM | IC50 [2]: 42 nM | IC50 [3]: 120 nM | IC50 [4]: 55 nM | IC50 [5]: 46 nM | IC50 [6]: 53 nM | IC50 [7]: 29 nM
SMILES: CS(=N)(=O)Cc1ccnc(Nc2cc(-c3ccc(F)c4ccoc34)c(F)cn2)c1 (racemic) [Example 5, (rac)-5-Fluoro-4-(4-fluoro-1-benzofuran-7-yl)-N-{4-[(S-methylsulfonimidoyl)methyl]pyridin-2-yl}pyridin-2-amine]

— patent US9770445B2, “Sulfoximine substituted 5-fluoro-N-(pyridin-2-yl)pyridin-2-amine derivatives and their use as CDK9 kinase inhibitors” (BAYER PHARMA AKTIENGESELLSCHAFT, priority 2013, dated 2017)
